Laboratory results from US20180251431A1 (VERTEX PHARMACEUTICALS INCORPORATED, priority 2016, published 2018).

Tested on: HEK293 cells
Assay: HEK293 VLCFA-LPC IC50 determination (13C-labeled C26:0 LPC by UHPLC/MS)
Assay type: cell-based, human
Details: Homo sapiens, HEK293, HEK293 cells; average of one or more replicates; read-out: Average HEK293 IC50
Outline: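 Suspension HEK293 cells (final 0.5 million/mL after mixing with equal volume) incubated 48 hours with compound plus 13C-acetate (1.0 mg/mL in added media), shaking at 37° C. Lipids extracted with hexane/isopropanol or methanol, C13:0 LPC standard. UHPLC/MS of 13C-labeled C26:0 LPC (638.500/104.100 m/z); IC50 by four-parameter fit.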

O=C(Nc1ccn(-c2ccc(Cl)c(F)c2)n1)C1(c2ccccc2)CC1 [Compound 196, N-[1-(4-chloro-3-fluoro-phenyl)pyrazol-3-yl]-1-phenyl-cyclopropanecarboxamide]
IC50: > 5000 nM

O=C(Cc1ccccc1)Nc1ccn(-c2ccc(F)c(Cl)c2)n1 [Compound 197, N-[1-(3-chloro-4-fluoro-phenyl)pyrazol-3-yl]-2-phenyl-acetamide]
IC50: > 5000 nM

O=C(Nc1ccn(-c2ccc(F)c(Cl)c2)n1)C1(c2ccccc2F)CC1 [Compound 198, N-[1-(3-chloro-4-fluoro-phenyl)pyrazol-3-yl]-1-(2-fluorophenyl)cyclopropanecarboxamide]
IC50: 720 nM

O=C(Cc1ccccc1F)Nc1ccn(-c2ccc(F)c(Cl)c2)n1 [Compound 199, N-[1-(3-chloro-4-fluoro-phenyl)pyrazol-3-yl]-2-(2-fluorophenyl)acetamide]
IC50: > 5000 nM

O=C(Nc1ccn(-c2ccc(F)c(Cl)c2)n1)C1(c2ccccc2)CC1 [Compound 200, N-[1-(3-chloro-4-fluoro-phenyl)pyrazol-3-yl]-1-phenyl-cyclopropanecarboxamide]
IC50: 700 nM

O=C(Nc1ccn(-c2cncc(F)c2)n1)C1(c2ccccc2)CC1 [Compound 201, N-[1-(5-fluoro-3-pyridyl)pyrazol-3-yl]-1-phenyl-cyclopropanecarboxamide]
IC50: 46 nM

O=C(Nc1ccn(-c2ccnnc2)n1)C1(c2ccccc2F)CC1 [Compound 202, 1-(2-fluorophenyl)-N-(1-pyridazin-4-ylpyrazol-3-yl)cyclopropanecarboxamide]
IC50: 95 nM

O=C(Cc1ccccc1F)Nc1ccn(-c2ccnc(F)c2)n1 [Compound 203, 2-(2-fluorophenyl)-N-[1-(2-fluoro-4-pyridyl)pyrazol-3-yl]acetamide]
IC50: 100 nM

O=C(Cc1ccccc1F)Nc1ccn(-c2cncc(F)c2)n1 [Compound 204, 2-(2-fluorophenyl)-N-[1-(5-fluoro-3-pyridyl)pyrazol-3-yl]acetamide]
IC50: 97 nM

O=C(Cc1ccccc1)Nc1ccn(-c2cncc(F)c2)n1 [Compound 205, N-[1-(5-fluoro-3-pyridyl)pyrazol-3-yl]-2-phenyl-acetamide]
IC50: 720 nM

O=C(Nc1ccn(-c2ccncn2)n1)C1(c2ccccc2F)CC1 [Compound 206, 1-(2-fluorophenyl)-N-(1-pyrimidin-4-ylpyrazol-3-yl)cyclopropanecarboxamide]
IC50: 34 nM

O=C(Nc1ccn(-c2ccncn2)n1)C1(c2ccccc2)CC1 [Compound 207, 1-phenyl-N-(1-pyrimidin-4-ylpyrazol-3-yl)cyclopropanecarboxamide]
IC50: 36 nM

O=C(Cc1ccccc1F)Nc1ccn(-c2ccncn2)n1 [Compound 208, 2-(2-fluorophenyl)-N-(1-pyrimidin-4-ylpyrazol-3-yl)acetamide]
IC50: 2300 nM

O=C(Cc1ccccc1)Nc1ccn(-c2ccncn2)n1 [Compound 209, 2-phenyl-N-(1-pyrimidin-4-ylpyrazol-3-yl)acetamide]
IC50: 2300 nM

O=C(Nc1ccn(-c2ccccn2)n1)C1(c2ccccc2F)CC1 [Compound 210, 1-(2-fluorophenyl)-N-[1-(2-pyridyl)pyrazol-3-yl]cyclopropanecarboxamide]
IC50: 170 nM

O=C(Cc1ccccc1F)Nc1ccn(-c2ccccn2)n1 [Compound 211, 2-(2-fluorophenyl)-N-[1-(2-pyridyl)pyrazol-3-yl]acetamide]
IC50: 1700 nM

O=C(Nc1ccn(-c2ccccn2)n1)C1(c2ccccc2)CC1 [Compound 212, 1-phenyl-N-[1-(2-pyridyl)pyrazol-3-yl]cyclopropanecarboxamide]
IC50: 190 nM

O=C(Cc1ccccc1)Nc1ccn(-c2cccnc2)n1 [Compound 213, 2-phenyl-N-(1-(pyridin-3-yl)-1H-pyrazol-3-yl)acetamide]
IC50: 1200 nM

O=C(Nc1ccn(-c2cccnc2)n1)C1(c2ccccc2F)CC1 [Compound 214, 1-(2-fluorophenyl)-N-[1-(3-pyridyl)pyrazol-3-yl]cyclopropanecarboxamide]
IC50: 45 nM

O=C(Nc1ccn(-c2cnccn2)n1)C1(c2ccccc2F)CC1 [Compound 215, 1-(2-fluorophenyl)-N-(1-pyrazin-2-ylpyrazol-3-yl)cyclopropanecarboxamide]
IC50: 610 nM

O=C(Cc1ccccc1F)Nc1ccn(-c2cnccn2)n1 [Compound 216, 2-(2-fluorophenyl)-N-(1-pyrazin-2-ylpyrazol-3-yl)acetamide]
IC50: > 5000 nM

O=C(Nc1ccn(-c2cncs2)n1)C1(c2ccccc2F)CC1 [Compound 217, 1-(2-fluorophenyl)-N-(1-thiazol-5-ylpyrazol-3-yl)cyclopropanecarboxamide]
IC50: 84 nM

O=C(Cc1ccccc1)Nc1ccn(-c2cnccn2)n1 [Compound 218, 2-phenyl-N-(1-pyrazin-2-ylpyrazol-3-yl)acetamide]
IC50: > 2000 nM

O=C(Cc1cnccn1)Nc1ccn(-c2ccccc2)n1 [Compound 219, N-(1-phenylpyrazol-3-yl)-2-pyrazin-2-yl-acetamide]
IC50: > 5000 nM

O=C(Cc1ncccn1)Nc1ccn(-c2ccccc2)n1 [Compound 220, N-(1-phenylpyrazol-3-yl)-2-pyrimidin-2-yl-acetamide]
IC50: > 2000 nM

O=C(Cc1ncccn1)Nc1ccn(-c2ccnc(F)c2)n1 [Compound 221, N-[1-(2-fluoro-4-pyridyl)pyrazol-3-yl]-2-pyrimidin-2-yl-acetamide]
IC50: > 5000 nM

O=C(Nc1ccn(-c2ccnc(F)c2)n1)C1(c2cccnc2)CC1 [Compound 222, N-[1-(2-fluoro-4-pyridyl)pyrazol-3-yl]-1-(3-pyridyl)cyclopropanecarboxamide]
IC50: 2000 nM

O=C(Nc1ccn(-c2ccnc(F)c2)n1)C1(c2ccccn2)CC1 [Compound 223, N-[1-(2-fluoro-4-pyridyl)pyrazol-3-yl]-1-(2-pyridyl)cyclopropanecarboxamide]
IC50: 70 nM

O=C(Nc1ccn(-c2ccccc2)n1)C1(c2cccnc2)CC1 [Compound 224, N-(1-phenylpyrazol-3-yl)-1-(3-pyridyl)cyclopropanecarboxamide]
IC50: 1400 nM

O=C(Nc1ccn(-c2ccccc2)n1)C1(c2ccccn2)CC1 [Compound 225, N-(1-phenylpyrazol-3-yl)-1-(2-pyridyl)cyclopropanecarboxamide]
IC50: 75 nM

N#Cc1ccc(C2(C(=O)Nc3ccn(-c4ccnc(F)c4)n3)CC2)cc1 [Compound 226, 1-(4-cyanophenyl)-N-[1-(2-fluoro-4-pyridyl)pyrazol-3-yl]cyclopropanecarboxamide]
IC50: 110 nM

N#Cc1ccc(C2(C(=O)Nc3ccn(-c4ccccc4)n3)CC2)cc1 [Compound 227, 1-(4-cyanophenyl)-N-(1-phenylpyrazol-3-yl)cyclopropanecarboxamide]
IC50: 290 nM

Cn1ccc(-n2ccc(NC(=O)Cc3ccccc3)n2)n1 [Compound 228, N-[1-(1-methylpyrazol-3-yl)pyrazol-3-yl]-2-phenyl-acetamide]
IC50: > 5000 nM

Cn1ccc(-n2ccc(NC(=O)C3(c4ccccc4F)CC3)n2)n1 [Compound 229, 1-(2-fluorophenyl)-N-[1-(1-methylpyrazol-3-yl)pyrazol-3-yl]cyclopropanecarboxamide]
IC50: 3500 nM

Cn1ccc(-n2ccc(NC(=O)Cc3ccccc3F)n2)n1 [Compound 230, 2-(2-fluorophenyl)-N-[1-(1-methylpyrazol-3-yl)pyrazol-3-yl]acetamide]
IC50: > 5000 nM

Cn1ccc(-n2ccc(NC(=O)C3(c4ccccc4)CC3)n2)n1 [Compound 231, N-[1-(1-methylpyrazol-3-yl)pyrazol-3-yl]-1-phenyl-cyclopropanecarboxamide]
IC50: > 5000 nM

O=C(Nc1ccn(-c2cnccn2)n1)C1(c2ccccc2)CC1 [Compound 233, 1-phenyl-N-(1-pyrazin-2-ylpyrazol-3-yl)cyclopropanecarboxamide]
IC50: 1500 nM

O=C(Nc1ccn(-c2cccnc2)n1)C1(c2ccccc2)CC1 [Compound 234, 1-phenyl-N-[1-(3-pyridyl)pyrazol-3-yl]cyclopropanecarboxamide]
IC50: 29 nM

O=C(Cc1ccccc1F)Nc1ccn(-c2cccnc2)n1 [Compound 235, 2-(2-fluorophenyl)-N-[1-(3-pyridyl)pyrazol-3-yl]acetamide]
IC50: 320 nM

O=C(Cc1cncnc1)Nc1ccn(-c2ccnc(F)c2)n1 [Compound 236, N-[1-(2-fluoro-4-pyridyl)pyrazol-3-yl]-2-pyrimidin-5-yl-acetamide]
IC50: > 5000 nM

O=C(Nc1ccn(-c2ccnc(F)c2)n1)C1(c2ccccc2)CC1 [Compound 237, N-[1-(2-fluoro-4-pyridyl)pyrazol-3-yl]-1-phenyl-cyclopropanecarboxamide]
IC50: 22 nM

O=C(Nc1ccn(-c2ccnc(F)c2)n1)C1(c2ccc(I)cc2)CC1 [Compound 238, N-[1-(2-fluoro-4-pyridyl)pyrazol-3-yl]-1-(4-iodophenyl)cyclopropanecarboxamide]
IC50: 120 nM

O=C(Nc1ccn(-c2cccnn2)n1)C1(c2ccccc2F)CC1 [Compound 239, 1-(2-fluorophenyl)-N-(1-pyridazin-3-ylpyrazol-3-yl)cyclopropanecarboxamide]
IC50: 300 nM

O=C(Nc1ccn(-c2ncccn2)n1)C1(c2ccccc2F)CC1 [Compound 240, 1-(2-fluorophenyl)-N-(1-pyrimidin-2-ylpyrazol-3-yl)cyclopropanecarboxamide]
IC50: 4400 nM

Cc1ncc(-n2ccc(NC(=O)C3(c4ccccc4F)CC3)n2)cn1 [Compound 241, 1-(2-fluorophenyl)-N-[1-(2-methylpyrimidin-5-yl)pyrazol-3-yl]cyclopropanecarboxamide]
IC50: > 5000 nM

N#Cc1ccccc1C1(C(=O)Nc2ccn(-c3ccccc3)n2)CC1 [Compound 242, 1-(2-cyanophenyl)-N-(1-phenylpyrazol-3-yl)cyclopropanecarboxamide]
IC50: > 2000 nM

N#Cc1cccc(C2(C(=O)Nc3ccn(-c4ccnc(F)c4)n3)CC2)c1 [Compound 243, 1-(3-cyanophenyl)-N-[1-(2-fluoro-4-pyridyl)pyrazol-3-yl]cyclopropanecarboxamide]
IC50: 310 nM
